The test system of data set [1] is H1703 Cells. Nature of the data set: In vitro cytotoxicity of predominant ADC metabolites, H1703. The data set is classed as cell-based. Here is the method:
(§1) Assays were performed in flat bottom 96-well plates in triplicate for each data point. Test articles were first diluted in complete cell culture media using 5-fold dilution series and 100 μL were added into each well. The final concentrations typically ranged from 3×10^−8 M to 8×10^−14 M. The target cells were then added to the test articles at 1,500 to 3,000 cells per well in 100 μL of complete culture media. The mixtures were incubated at 37° C. in a humidified 5% CO2 incubator for 5 days. Viability of the remaining cells was determined by the WST-8 (Tetrazolium salt-8; 2-(2-methoxy-4-nitrophenyl)-3-(4-nitrophenyl)-5-(2,4-disulfophenyl)-2H-tetrazolium) based colorimetric assay using the Cell Counting Kit-8 (Dojindo Molecular Technologies, Inc., Rockville, Md.). The WST-8 is reduced by dehydrogenases in live cells to give a yellow-colored formazan product that is soluble in tissue culture media. […] The WST-8 signals were then measured using a microplate plate reader at optical density of 450 nm. The surviving fraction was calculated by dividing the value of each treated sample by the average value of untreated controls, and plotted against the test article concentrations in a semi-log plot for each treatment. IC50 values were determined using nonlinear regression (curve fit) with GraphPad Prism v5 program (GraphPad Software, La Jolla, Calif.). […]

Data set [2] relates to H1975 Cells. Briefly: In vitro cytotoxicity of predominant ADC metabolites, H1975. The data set is classed as cell-based. Here is the method: as §1
The test system of data set [3] is COLO704 Cells. Nature of the data set: In vitro cytotoxicity of predominant ADC metabolites, COLO704. It is filed as cell-based. The protocol: as §1
For data set [4], the system named is FRα-expressing KB cells. Briefly: In vitro metabolism study in KB cells. The data set is classed as in vitro ADME. The settings on record: KB cells treated with saturating amount of 17c conjugate for 24 hours; UHPLC/HRMS. The protocol:
FRα-expressing KB cells were treated with a saturating amount of 17c conjugate for 24 hours. Catabolite-containing media was incubated with 5 mM NEM to cap any free thiol present and then captured by pre-bound protein A-anti-maytansinoid antibody complex. The catabolites were released by acetone extraction, and analyzed by UHPLC/HRMS.

Broadly, the IC50 is the concentration that gives 50% inhibition. As for `COc1cc2cc(c1Cl)N(C)C(=O)C[C@H](OC(=O)[C@H](C)N(C)C(=O)CCCSC)[C@]1(C)O[C@H]1[C@H](C)[C@@H]1C[C@@](O)(NC(=O)O1)[C@H](OC)/C=C/C=C(\C)C2` [metabolite 25b, DM-CO—(CH2)3-SMe], the IC50 in data set [1] turned out to be 5.92 pM; in data set [2] it was 5.6 pM; in data set [3], 6.88 pM.

Turning to `COc1cc2cc(c1Cl)N(C)C(=O)C[C@H](OC(=O)[C@H](C)N(C)C(=O)CCCCCSC)[C@]1(C)O[C@H]1[C@H](C)[C@@H]1C[C@@](O)(NC(=O)O1)[C@H](OC)/C=C/C=C(\C)C2` [metabolite 25a, DM-CO—(CH2)5-SMe], the IC50 turned out to be 2.27 pM in data set [1] and 3.04 pM in data set [3]. The “catabolites identified in cell culture media” value in data set [4] is reported as “major effluxed catabolites”.

(Values after patent US11135308B2, “Maytansinoid derivatives with self-immolative peptide linkers and conjugates thereof” (priority 2017, dated 2021).)
